Reference: patent US8309068B2, “Isolated polypeptides and methods of improving muscle strength” (Myostin Therapeutics Pty Ltd., priority 2006, dated 2012)
Where no end group is shown, it is not given here.

Experiments:
[1] = test system: Human skeletal muscle myoblasts; test: Human myoblast proliferation assay; format: cell-based; conditions: 1, 5 or 10 μg/ml; 144 hours
Experimental: (§1) Human skeletal muscle myoblasts (Cambrex, USA) or primary ovine myoblasts were grown in Dulbecco's Modified Eagle Medium containing 20% FBS, 10% Horse serum and 0.5% chicken embryo extract according to the standard techniques. The myoblast proliferation assay was carried out in uncoated 96-well microtitre plates. Cell cultures were seeded at 2000 cells/well. Following a 24-hour attachment period, test media supplemented with 5% FCS containing either buffer as a control or different myostatin antagonists (300, 310 or 320) were added at 1, 5 and 10 μg/ml and cells were incubated for a further 144 hour period (for human cells) or 48 hours (for ovine cells). After the incubation period, proliferation was assessed using methylene blue photometric endpoint assay as previously described (Thomas et al, 2000).

[2] = test system: primary ovine myoblasts; test: Ovine myoblast proliferation assay; format: cell-based; conditions: 1, 5 or 10 μg/ml; 48 hours
Experimental: as §1

[3] = test system: myostatin; test: C2C12 myoblast proliferation competition assay: wild type myostatin competed with antagonists; format: cell-based; conditions: antagonist 1, 5 and 10 μg/ml; myostatin 2.25 μg/ml
Experimental: […] C2C12 myoblasts were grown in Dulbecco's modified eagle medium according to the standard techniques (Thomas et al, 2000). The myoblast proliferation assay was carried out in uncoated 96-well microtitre plates. C2C12 cultures were seeded at 1000 cells/well. Following a 16-hour attachment period, test media containing either recombinant wild type myostatin or different myostatin antagonists were added and cells were incubated for a further 48 or 72 hour period. For competition assay, wild type myostatin was competed with different concentrations of myostatin antagonists prior to the addition into the media. After the incubation period, proliferation was assessed using methylene blue photometric endpoint assay as previously described (Thomas et al, 2000).

[4] = test system: primary myoblasts; test: Migration of primary myoblasts isolated from mice treated in vivo; conditions: 6 μg/g BW SC three times a week for six weeks; three chemo-attractant media; vs saline
Excerpt: In a second myoblast migration assay, primary myoblasts isolated form hind limb of saline treated (control) and myostatin antagonist 300 treated mice (as described in example 4 below). Three chemo-attractant media were used: DMEM containing 2% horse serum (HS) and 5% chicken embryo extract (CEE) (optimal chemo-attractant); DMEM containing only 5% CEE or DMEM containing only 2% HS (both suboptimal chemo-attractants). Plain DMEM was used as negative control. On a 24-well plate, the bottom wells were filled with test or control media. Seventy-five thousand cells were added to the top wells. The plate was incubated for 7h at 37° C., 5% CO2. […] The membrane was then fixed, stained in Gill's hematoxylin and wet mounted on slides. Migrated cells were counted on four representative fields per membrane and the average number plotted.
(§2) An animal trial was conducted to assess the effects of myostatin antagonist 300 in improving muscle function. Sixteen month old mice were divided into two groups of ten. While the control group received saline subcutaneous (SC) injections, the other group received myostatin antagonist 300 SC at 6 μg/gram of BW three times a week for six weeks. The functional improvement of sarcopenic muscle was assessed by measuring grip strength of mice at the end of trial. Grip strength was measured in Newtons.

[5] = test system: skin burn in C56b1/6 mice; test: In vivo skin burn trial (hydroxyproline assay); conditions: 6 μg/g SC day 1, 3, 5, 7 and 10, vs control
Experimental: C56b1/6 mice at ˜12 months of age were anesthetized, the skin at the back of the neck was shaved, and a red-hot metal rod (1.5 mm wide, 7 mm long) was applied to the exposed skin of the mice for 5 sec. The mice were injected subcutaneously with either saline or 300 myostatin antagonist at 6 μg/g of body weight at day 1, 3, 5, 7 and 10 after injury. The mice were allowed to heal for 5, 7, 14, 21, 28, 35 and 46 days, after which they were culled and the skin frozen in liquid nitrogen for hydroxyproline analysis.
After a burn injury in skin a hydroxyproline assay was performed to determine the amount of collagen deposits on the wound area. Hydroxyproline is present in collagen, and gives it a stable helical conformation. Therefore, measuring the amount of hydroxyproline present in a given tissue will determine the amount of collagen present in the tissue.

[6] = test system: satellite cells; test: Satellite cell activation on single fibres from mice treated in vivo; conditions: 6 μg/g BW SC three times a week for six weeks; end of treatment
Experimental: To test the effect of short term myostatin antagonist treatment on satellite cell activation, single fibres were isolated from mice from each treatment group (as described in example 4, below), and cultured as described above. Satellite cell activation was investigated using anti-PCNA antibodies as described.
as §2

[7] = test system: skin biopsy wound in C56b1/6 mice; test: In vivo skin biopsy trial; conditions: 4 mm biopsy punch; 6 μg/g SC day 1, 3, 5 and 7; vs saline, particularly later time points
Experimental: C56b1/6 mice at ˜10 months of age were anesthetized, the skin at the back of the neck was shaved, and two wounds made on the skin with a 4 mm biopsy punch. The mice were injected subcutaneously with either saline or 300 myostatin antagonist at 6 μg/g of body weight at day 1, 3, 5 and 7 after injury. The mice were allowed to heal for 5, 7, 14, 21 and 28 days, after which they were culled and the skin processed for histology.
For the histology, skin samples were fixed in 10% formalin, embedded and mounted in paraffin and stained with Masson's Trichrome stain. The sections were analysed for the size of wound area for each day following the treatments, and the values plotted.

myostatin antagonist 300: recombinant peptide, amino acids 267-300 of bovine myostatin, with N terminal and C terminal tag (SEQ ID NO: 6) (DFGLDCDEHSTESRCCRYPLTVDFEAFGWDWIIA; cysteine pairing not given here; also: N- and C-terminal tags; listed as Homo sapiens)
proliferation capacity of human myoblasts compared to control [1]: significantly enhanced
proliferation capacity of ovine myoblasts compared to control [2]: significantly enhanced
rescue of the proliferation-inhibiting effects of myostatin on myoblasts [3]: rescued to levels similar to those observed in the positive control
migration rates of myoblasts isolated from treated mice [4]: significantly increased migration rates
collagen on the wound area (hydroxyproline assay) [5]: tendency towards lower level of collagen
satellite cell activation in fibres isolated from treated mice [6]: increase observed
wound area [7]: smaller wound area
